Paper PMC10559933 (The Prostate, 2023)
Read-outs that look alike come from different tables or passages of the source. Values belong to the compound of their own block, whether it stands above or below them.

Key:
[1] = cited from earlier work
immobilized fl-HDAC4 = immobilized fl-HDAC4 (Homo sapiens, UniProt P56524); assay: SPR: compound in solution binding to immobilized fl-HDAC4; details: at >30 μM in solution, Zn2+ present
[2] = tested on: CWR22-RH human prostate cancer PDXs; assay: In vivo growth of CWR22-RH PDX in castrate NSG mice; parameters: species or system human xenograft in NSG mice; details: castrate NSG mice
[3] = tested on: human umbilical vein endothelial cells (HUVECs); assay: Three dimensional; type: cell-based; details: CM-supplemented 3D cultures, 10 μM
[4] = cited from earlier work; remark: listed apart in the source
fl-wild-type HDAC4 = fl-wild-type HDAC4 (Homo sapiens, UniProt P56524); assay: SPR competition: TasQ in solution vs immobilized TasQ for fl-wild-type HDAC4; type: binding
fl-wild-type HDAC4, sequence (P56524 whole entry): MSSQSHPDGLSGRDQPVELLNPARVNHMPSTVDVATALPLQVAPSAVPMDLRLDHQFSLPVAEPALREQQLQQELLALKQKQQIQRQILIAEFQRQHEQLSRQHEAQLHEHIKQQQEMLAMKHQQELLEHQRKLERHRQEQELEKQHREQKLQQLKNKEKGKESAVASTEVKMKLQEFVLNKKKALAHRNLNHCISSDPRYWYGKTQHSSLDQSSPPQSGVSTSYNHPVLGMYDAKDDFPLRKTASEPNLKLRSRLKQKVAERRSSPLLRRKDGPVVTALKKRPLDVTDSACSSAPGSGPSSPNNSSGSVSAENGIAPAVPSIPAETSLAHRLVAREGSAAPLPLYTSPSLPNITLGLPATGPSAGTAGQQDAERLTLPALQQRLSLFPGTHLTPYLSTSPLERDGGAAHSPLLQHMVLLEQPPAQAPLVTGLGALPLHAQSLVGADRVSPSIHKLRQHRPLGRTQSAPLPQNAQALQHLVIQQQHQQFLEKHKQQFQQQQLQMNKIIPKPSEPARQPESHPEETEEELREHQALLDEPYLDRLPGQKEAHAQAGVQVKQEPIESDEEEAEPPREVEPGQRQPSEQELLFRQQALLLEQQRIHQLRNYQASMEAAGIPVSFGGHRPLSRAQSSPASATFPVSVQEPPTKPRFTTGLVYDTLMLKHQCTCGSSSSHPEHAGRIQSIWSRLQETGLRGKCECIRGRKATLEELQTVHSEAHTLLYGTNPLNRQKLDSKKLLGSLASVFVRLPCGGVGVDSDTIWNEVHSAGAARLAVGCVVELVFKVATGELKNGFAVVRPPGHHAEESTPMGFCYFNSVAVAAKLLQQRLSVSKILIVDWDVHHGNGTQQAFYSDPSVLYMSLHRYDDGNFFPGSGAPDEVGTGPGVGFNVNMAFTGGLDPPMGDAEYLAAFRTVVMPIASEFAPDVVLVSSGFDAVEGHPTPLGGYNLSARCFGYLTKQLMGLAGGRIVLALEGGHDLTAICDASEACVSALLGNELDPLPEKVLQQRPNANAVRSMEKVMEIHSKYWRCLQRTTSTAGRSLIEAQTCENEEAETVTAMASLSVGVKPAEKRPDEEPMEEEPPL

[5] = target: fl-R681A/R798A double mutant HDAC4 protein (Homo sapiens, UniProt P56524, R681A/R798A); assay: SPR competition: TasQ in solution vs immobilized TasQ for mutant HDAC4; type: binding
fl-R681A/R798A double mutant HDAC4 protein, sequence (P56524 whole entry R681A/R798A): as the sequence (P56524 whole entry) above, with R681A, R798A counted along it

thymus = assay: AHR agonist induced thymus regression in FVB male mice; type: in vivo; details: oral 10 mg/kg/d for 14 days; vehicle 72 +/− 3 (>70)
[6] = tested on: LvCaP-3 human prostate cancer PDXs; assay: In vivo growth of LvCaP-3 PDX in castrate mice; parameters: species or system human xenograft in mice; details: oral 10 mg/kg/d, alone or in combination with B(a)P
HIF-1α protein = details: daily oral 10 mg/kg/d; cited from earlier work
CWR22-RH PDXs = assay: RNA sequencing of in vivo growing CWR22-RH PDX; parameters: species or system human xenograft in mice; details: oral 10 mg/kg/d vs vehicle, castrate hosts
[7] = tested on: prostate cancer xenografts; details: oral 10 mg/kg/d, cited from earlier work
fl-NCoR1 protein = fl-NCoR1 protein (Homo sapiens, UniProt O75376); assay: SPR: TasQ in solution binding to immobilized fl-NCoR1
fl-NCoR1 protein, sequence (O75376 whole entry): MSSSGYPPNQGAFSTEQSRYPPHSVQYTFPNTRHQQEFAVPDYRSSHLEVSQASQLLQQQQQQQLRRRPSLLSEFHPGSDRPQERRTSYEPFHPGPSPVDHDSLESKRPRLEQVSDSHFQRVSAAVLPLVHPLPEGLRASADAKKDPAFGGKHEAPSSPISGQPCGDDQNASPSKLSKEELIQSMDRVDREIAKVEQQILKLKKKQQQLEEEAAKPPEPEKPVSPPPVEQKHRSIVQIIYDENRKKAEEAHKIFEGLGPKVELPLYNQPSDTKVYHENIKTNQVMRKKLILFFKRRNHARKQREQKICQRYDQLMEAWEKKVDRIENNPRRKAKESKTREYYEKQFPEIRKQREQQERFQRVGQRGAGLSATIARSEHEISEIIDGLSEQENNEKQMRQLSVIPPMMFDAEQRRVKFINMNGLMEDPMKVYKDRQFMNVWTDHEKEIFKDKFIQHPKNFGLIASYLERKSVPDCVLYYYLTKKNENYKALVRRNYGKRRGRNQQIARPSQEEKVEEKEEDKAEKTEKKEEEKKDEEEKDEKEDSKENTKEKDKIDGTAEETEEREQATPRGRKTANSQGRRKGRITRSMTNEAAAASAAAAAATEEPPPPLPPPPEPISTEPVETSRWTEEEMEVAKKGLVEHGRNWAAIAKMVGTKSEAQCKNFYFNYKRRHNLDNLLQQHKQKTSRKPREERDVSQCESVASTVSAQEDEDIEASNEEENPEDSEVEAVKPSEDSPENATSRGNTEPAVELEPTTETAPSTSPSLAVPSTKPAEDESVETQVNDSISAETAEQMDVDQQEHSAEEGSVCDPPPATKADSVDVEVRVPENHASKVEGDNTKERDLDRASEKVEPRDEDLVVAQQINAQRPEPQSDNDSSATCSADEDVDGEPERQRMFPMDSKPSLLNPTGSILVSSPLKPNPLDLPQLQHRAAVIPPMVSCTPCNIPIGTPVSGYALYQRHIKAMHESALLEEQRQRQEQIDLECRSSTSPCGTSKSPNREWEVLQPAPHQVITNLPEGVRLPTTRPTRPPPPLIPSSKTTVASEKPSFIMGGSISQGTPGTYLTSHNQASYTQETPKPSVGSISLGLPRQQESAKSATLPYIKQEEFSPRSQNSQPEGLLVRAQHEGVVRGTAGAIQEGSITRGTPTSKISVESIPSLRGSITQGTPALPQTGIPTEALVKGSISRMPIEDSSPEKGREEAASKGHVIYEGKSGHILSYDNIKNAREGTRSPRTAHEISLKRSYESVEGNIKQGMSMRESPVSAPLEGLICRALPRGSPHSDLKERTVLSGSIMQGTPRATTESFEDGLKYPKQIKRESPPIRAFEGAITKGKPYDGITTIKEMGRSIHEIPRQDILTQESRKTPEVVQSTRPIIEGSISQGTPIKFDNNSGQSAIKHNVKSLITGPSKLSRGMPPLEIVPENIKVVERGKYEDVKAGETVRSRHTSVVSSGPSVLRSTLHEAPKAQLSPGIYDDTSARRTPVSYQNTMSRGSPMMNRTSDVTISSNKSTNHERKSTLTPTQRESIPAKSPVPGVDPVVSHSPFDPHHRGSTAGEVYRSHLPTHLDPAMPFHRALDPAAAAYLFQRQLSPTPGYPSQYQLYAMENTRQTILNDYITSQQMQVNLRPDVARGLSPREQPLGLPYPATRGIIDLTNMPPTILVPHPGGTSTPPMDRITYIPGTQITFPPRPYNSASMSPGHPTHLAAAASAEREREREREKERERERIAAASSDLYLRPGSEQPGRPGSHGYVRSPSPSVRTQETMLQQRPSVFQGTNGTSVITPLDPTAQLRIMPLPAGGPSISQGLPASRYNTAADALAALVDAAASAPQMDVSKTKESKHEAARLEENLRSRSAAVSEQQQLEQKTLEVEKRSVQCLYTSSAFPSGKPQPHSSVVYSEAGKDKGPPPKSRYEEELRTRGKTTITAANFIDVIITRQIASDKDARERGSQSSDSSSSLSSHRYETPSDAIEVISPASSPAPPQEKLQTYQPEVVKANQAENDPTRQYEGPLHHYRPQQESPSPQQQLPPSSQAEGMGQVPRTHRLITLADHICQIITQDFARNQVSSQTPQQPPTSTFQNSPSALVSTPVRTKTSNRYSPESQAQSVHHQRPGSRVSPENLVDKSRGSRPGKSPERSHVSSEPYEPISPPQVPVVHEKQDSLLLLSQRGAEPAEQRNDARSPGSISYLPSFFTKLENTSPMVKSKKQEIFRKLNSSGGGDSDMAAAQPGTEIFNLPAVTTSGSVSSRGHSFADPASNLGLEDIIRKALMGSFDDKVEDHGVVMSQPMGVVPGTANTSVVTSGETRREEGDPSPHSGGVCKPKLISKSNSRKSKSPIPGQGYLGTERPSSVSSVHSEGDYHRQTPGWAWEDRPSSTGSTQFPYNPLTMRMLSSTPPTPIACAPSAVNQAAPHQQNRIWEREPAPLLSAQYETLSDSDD

[8] = target: T1, Human Aryl Hydrocarbon Receptor (AHR) (Homo sapiens, UniProt P35869); assay: Cell-based luciferase reporter gene assay driven by AHR-responsive promoter
T1 sequence (P35869 11-848): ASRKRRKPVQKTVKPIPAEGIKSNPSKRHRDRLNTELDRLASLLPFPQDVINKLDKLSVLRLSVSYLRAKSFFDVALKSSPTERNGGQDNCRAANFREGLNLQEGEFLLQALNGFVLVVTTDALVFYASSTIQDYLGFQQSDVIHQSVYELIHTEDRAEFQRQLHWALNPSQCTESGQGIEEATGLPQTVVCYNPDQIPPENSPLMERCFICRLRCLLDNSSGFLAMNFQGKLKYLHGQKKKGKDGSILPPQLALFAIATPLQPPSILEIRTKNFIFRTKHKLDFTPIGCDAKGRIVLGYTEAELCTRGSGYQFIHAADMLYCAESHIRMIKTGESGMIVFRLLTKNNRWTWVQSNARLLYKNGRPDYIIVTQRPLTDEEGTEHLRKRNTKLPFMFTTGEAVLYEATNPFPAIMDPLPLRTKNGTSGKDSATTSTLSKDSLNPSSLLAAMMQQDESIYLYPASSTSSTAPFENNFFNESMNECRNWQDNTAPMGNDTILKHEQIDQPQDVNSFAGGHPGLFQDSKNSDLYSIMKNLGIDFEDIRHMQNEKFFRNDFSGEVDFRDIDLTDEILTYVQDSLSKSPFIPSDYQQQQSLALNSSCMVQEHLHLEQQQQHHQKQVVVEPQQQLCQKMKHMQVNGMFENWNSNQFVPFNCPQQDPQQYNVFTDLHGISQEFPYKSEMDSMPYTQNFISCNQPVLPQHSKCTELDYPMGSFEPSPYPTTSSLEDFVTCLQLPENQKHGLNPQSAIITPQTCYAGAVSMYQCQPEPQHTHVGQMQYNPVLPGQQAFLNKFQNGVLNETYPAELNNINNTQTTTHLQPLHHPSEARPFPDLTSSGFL

[9] = tested on: metastatic castration-resistant prostate cancer (mCRPC); details: cited from earlier work
CWR-22Rv1 xenografts = type: in vivo, human xenograft in mice; details: oral 10 mg/kg/d
[10] = tested on: prostate cancer xenografts; details: cited from earlier work
LNCaP cells = assay: In vitro growth of LNCaP parental vs HDAC4 KD cells, normoxia vs hypoxia; type: cell-based, human; details: TasQ 10 μM
liver Cyp1a1 = assay: Liver Cyp1a1 induction in mice; type: in vivo; details: oral 10 mg/kg, alone and in combination with B(a)P
fl-HDAC4 = fl-HDAC4 (Homo sapiens, UniProt P56524); assay: HDAC4 enzymatic assay with Lys; type: biochemical; details: Lys(TFA)-AMC substrate
fl-HDAC4, sequence (P56524 whole entry): as the sequence (P56524 whole entry) above

[11] = phase 1B, TasQ combined with cabazitaxel, RECIST

immobilized fl-HDAC4, sequence (P56524 whole entry): as above

share of immobilized fl-HDAC4 protein bound (immobilized fl-HDAC4): 10–15%
SMILES: CN(C(=O)c1c(O)c2ccccc2n(C)c1=O)c1ccccc1 [Linomide, 4-hydroxy-N,1-dimethyl-2-oxo-N-phenyl-1,2-dihydroquinoline-3-carboxamide]
side effects in phase III trials ([1]; chronic doses of ≤0.1 mg/kg): several cases of pericarditis and neuropathy

SMILES: COC(=O)c1c(O)c2c(OC)cccc2n(C)c1=O [ESATA-2]
growth inhibitor (GI) activity ([2]; oral 10 mg/kg/d over 3 weeks): no GI activity

SMILES: COc1cccc2c1c(O)c(C(=O)N(C)c1ccc(C(F)(F)F)cc1)c(=O)n2C [TasQ, 4-hydroxy-5-methoxy-N,1-dimethyl-2-oxo-N-[(4-trifluoromethyl)phenyl]-1,2-dihydroquinoline-3-caboxamide]
sprouting [3]: sprouting prevented | plasma concentration maintained ([1]; 0.5 mg/d): 230 ± 30 nM | steady-state plasma level ([1]; 1 mg/day): 0.42 ± 0.05 µM | MTD when combined with cabazitaxel and prednisone ([1]; phase 1B): 0.5 mg/day | maximum tolerated dose (MTD) ([1]; phase I, oral, after dose escalation over 4–6 weeks): 1 mg/day | dose-limiting toxicity ([1]; phase I): sinus tachycardia and asymptomatic elevation in amylase | serum nadir ([4]; oral 5 mg/kg/d, at 24 hrs): 1.08 ± 0.21 µM | blood concentration maintained ([4]; oral 10 mg/kg/d): > 1000 nM | EC50 (fl-wild-type HDAC4): 1000 nM | displacement of mutant HDAC4 from immobilized TasQ [5]: not competitively displaced | thymus weight (thymus): 41.6 ± 6 mg | oral daily dose giving maximal significant growth inhibition ([2]; 3-week treatment): ≥ 5 mg/kg/day | inhibition of growth at end of study (fraction) [6]: ~ 2/3 | lowering of HIF-1α protein in tumors (HIF-1α protein): > 50% | AGR2, AHR Target Genes (Fold Increases by TasQ) (CWR22-RH PDXs): 5.5 fold | AHR, AHR Target Genes (Fold Increases by TasQ) (CWR22-RH PDXs): 3.0 fold | ALDOC, HIF-1a Target Genes (Fold Decrease by TasQ) (CWR22-RH PDXs): −1.4 fold | AR, AR Target Genes (Fold Decrease by TasQ) (CWR22-RH PDXs): −2.0 fold | BNIP3, HIF-1a Target Genes (Fold Decrease by TasQ) (CWR22-RH PDXs): −1.9 fold | CDC6, Proliferation Target Genes (Fold Decrease by TasQ) (CWR22-RH PDXs): −1.5 fold | CDT1, Proliferation Target Genes (Fold Decrease by TasQ) (CWR22-RH PDXs): −2.2 fold | CYP1B1, AHR Target Genes (Fold Increases by TasQ) (CWR22-RH PDXs): 10.0 fold | DTYMK, Proliferation Target Genes (Fold Decrease by TasQ) (CWR22-RH PDXs): −1.6 fold | E2F1, Proliferation Target Genes (Fold Decrease by TasQ) (CWR22-RH PDXs): −2.0 fold | GDF15, AHR Target Genes (Fold Increases by TasQ) (CWR22-RH PDXs): 2.3 fold | HILPDA, HIF-1a Target Genes (Fold Decrease by TasQ) (CWR22-RH PDXs): −1.7 fold | IGF1, HIF-1a Target Genes (Fold Decrease by TasQ) (CWR22-RH PDXs): −11.0 fold | IGFBP2, HIF-1a Target Genes (Fold Decrease by TasQ) (CWR22-RH PDXs): −1.8 fold | IGFBP5, HIF-1a Target Genes (Fold Decrease by TasQ) (CWR22-RH PDXs): −18.0 fold | KLKP1, AR Target Genes (Fold Decrease by TasQ) (CWR22-RH PDXs): −2.3 fold | LDHA, HIF-1a Target Genes (Fold Decrease by TasQ) (CWR22-RH PDXs): −1.5 fold | LOX, HIF-1a Target Genes (Fold Decrease by TasQ) (CWR22-RH PDXs): −4.0 fold | MCM2, Proliferation Target Genes (Fold Decrease by TasQ) (CWR22-RH PDXs): −1.9 fold | MCM3, Proliferation Target Genes (Fold Decrease by TasQ) (CWR22-RH PDXs): −1.6 fold | MCM5, Proliferation Target Genes (Fold Decrease by TasQ) (CWR22-RH PDXs): −2.0 fold | MKI67, Proliferation Target Genes (Fold Decrease by TasQ) (CWR22-RH PDXs): −1.7 fold | NKX3.1, AR Target Genes (Fold Decrease by TasQ) (CWR22-RH PDXs): −2.3 fold | NQOI, AHR Target Genes (Fold Increases by TasQ) (CWR22-RH PDXs): 2.9 fold | P4HA1, HIF-1a Target Genes (Fold Decrease by TasQ) (CWR22-RH PDXs): −1.8 fold | PDK1, HIF-1a Target Genes (Fold Decrease by TasQ) (CWR22-RH PDXs): −1.7 fold | PTN, HIF-1a Target Genes (Fold Decrease by TasQ) (CWR22-RH PDXs): −6.1 fold | SLC45A3, AR Target Genes (Fold Decrease by TasQ) (CWR22-RH PDXs): −3.7 fold | TIPARP, AHR Target Genes (Fold Increases by TasQ) (CWR22-RH PDXs): 3.4 fold | TMPRSS2, AR Target Genes (Fold Decrease by TasQ) (CWR22-RH PDXs): −1.9 fold | TNC, HIF-1a Target Genes (Fold Decrease by TasQ) (CWR22-RH PDXs): −2.5 fold | TTR, HIF-1a Target Genes (Fold Decrease by TasQ) (CWR22-RH PDXs): −3.8 fold | VEGFB, HIF-1a Target Genes (Fold Decrease by TasQ) (CWR22-RH PDXs): −1.5 fold | BHLHE41, MEF-2 Target Genes (Fold Decrease by TasQ) (CWR22-RH PDXs; section title: upregulation): 2.9 fold | CA12, MEF-2 Target Genes (Fold Decrease by TasQ) (CWR22-RH PDXs; section title: upregulation): 2.7 fold | CAPN2, MEF-2 Target Genes (Fold Decrease by TasQ) (CWR22-RH PDXs; section title: upregulation): 1.6 fold | CEACAM1, MEF-2 Target Genes (Fold Decrease by TasQ) (CWR22-RH PDXs; section title: upregulation): 1.8 fold | EDN1, MEF-2 Target Genes (Fold Decrease by TasQ) (CWR22-RH PDXs; section title: upregulation): 15.0 fold | NR4A1, MEF-2 Target Genes (Fold Decrease by TasQ) (CWR22-RH PDXs; section title: upregulation): 1.4 fold | NR4A2, MEF-2 Target Genes (Fold Decrease by TasQ) (CWR22-RH PDXs; section title: upregulation): 1.8 fold | S100P, MEF-2 Target Genes (Fold Decrease by TasQ) (CWR22-RH PDXs; section title: upregulation): 5.7 fold | THB5, MEF-2 Target Genes (Fold Decrease by TasQ) (CWR22-RH PDXs; section title: upregulation): 8.0 fold | pO2 in the TME ([7]; lowered from >3 mmHg): 1.4 +/− 1.0 mmHg | enhancement of hypoxia [7]: > 2 fold | binding to immobilized fl-NCoR1 (fl-NCoR1 protein): no detectable binding | EC50 [8]: 1000 nM | patients with complete or partial response (CR/PR) [9, 11]: 12% | patients with stable disease [9, 11]: 48% | overall survival (OS) ([9]; phase III, 1 mg/day): not significantly enhanced | reduction of risk of radiographic progression or death vs. placebo ([9]; phase III, daily oral): 36% | improvement of median progression-free survival (PFS) ([9]; randomized phase II, mCRPC progressing on ADT): 4.3 months | growth inhibition (CWR-22Rv1 xenografts; dominant-positive mutant HIF-1α tumors): < 25% | growth inhibition (CWR-22Rv1 xenografts; wild type cells): > 80% | fold more potent compared to Linomide ([10]; based on serum drug level): ≥ 100 fold | daily oral dosing required in mice [10]: > 5 mg/kg/day | fold increase in anti-tumor efficacy compared to Linomide [10]: > 25 fold | daily oral dosing required for maximal therapeutic activity ([10]; preclinical): ≥ 5 mg/kg | serum concentration to be maintained for maximal therapeutic activity ([10]; preclinical): > 2 µM | effect on cells (LNCaP cells): the cells die | induction of liver Cyp1a1 (liver Cyp1a1): > 50 fold | effect on enzymatic activity (fl-HDAC4): did not inhibit
